In patent publication US20150072418A1, “HCV GENOTYPE 4D REPLICONS” (priority 2013, published 2015):

Experiments:
[1] = test system: GT4d (34R + 232G-pool) replicon; test: HCV replicon susceptibility to antiviral agents, GT4d (34R + 232G-pool); format: cell-based; details: Hepatitis C virus, GT4d replicon with Q34R + S232G, n = 2
Method: (§1) All of these HCV inhibitors, as well as any other candidate agents, can be tested with the disclosed methods for their efficacy in inhibiting HCV genotype 4d. The cells are then incubated at a suitable temperature for a period time to allow the replicons to replicate in the cells. The replicons can include a reporter gene such as luciferase and in such a case, at the end of the incubation period, the cells are assayed for luciferase activity as markers for replicon levels. Luciferase expression can be quantified using a commercial luciferase assay.
(§2) Luciferase or NS3 protease activity level is then converted into percentages relative to the levels in the controls which can be untreated or treated with an agent having known activity in inhibiting the HCV.
(§3) Stable GT4d subgenomic replicons were prepared to include these double mutations (FIG. 12). Ten micrograms of in vitro transcribed 4d Rluc-Neo RNA were transfected into 1C cells. G418 selection started 2 days after transfection and plates were fixed and stained after 2 weeks of G418 selection. […] The luciferase activity of these stable replicon cells of these replicons were further compared to GT4a replicons and GT1b.
(§4) Another comparison was made, with respect to each replicon's susceptibility against HCV antiviral agents.

[2] = test system: GT 4d-Neo replicons (4d-2Re and 4d-3Re), NS3 activity; test: Inhibition of NS3 activity of GT 4d-Neo replicons from pooled colonies; format: cell-based, Hepatitis C virus; details: 4d-3Re and 4d-2Re replicon cells; FIG. 3A-B
Excerpt: Alternately, efficacy of the HCV inhibitor can be measured by the expression or activity of the proteins encoded by the replicons. One example of such proteins is the NS3 protease, and detection of the protein expression or activity can be carried out with methods known in the art, e.g., Cheng et al., Antimicrob Agents Chemother 55:2197-205 (2011).
as §2
Two candidate HCV inhibitors, Compound A (FIG. 3A) and B (FIG. 3B) were used to test the inhibition of NS3 activities of the replicons isolated from pooled colonies (4d-2Re and 4d-3Re, see FIG. 2). […] Also observed was that NS3 activity was higher in 4d-3Re than 4d-2Re.
4000 cells/well were plated in 96-well white plates. NS3 activity was read 72 hours after plating. Values shown in FIG. 4 are mean of DMSO treated well from 3 plates.

GT4a replicon = test: HCV replicon susceptibility to antiviral agents, GT4a; format: cell-based; details: Hepatitis C virus, n = 2
Method: as §1, §2, §4

[3] = test system: GT4d (34R + 232I-pool) replicon; test: HCV replicon susceptibility to antiviral agents, GT4d (34R + 232I-pool); format: cell-based; details: Hepatitis C virus, GT4d replicon with Q34R + S232I, n = 2
Method: as §1, §2, §3, §4

GT1b replicon = test: HCV replicon susceptibility to antiviral agents, GT1b; format: cell-based; details: Hepatitis C virus, n = 2
Method: as §1, §2, §4

SMILES: CC(C)OC(=O)[C@H](C)NP(=O)(OC[C@H]1O[C@@H](n2ccc(=O)[nH]c2=O)[C@](C)(F)[C@@H]1O)Oc1ccccc1 (stereo partly drawn) [Compound A, isopropyl (2S)-2-[[[(2R,3R,4R,5R)-5-(2,4-dioxopyrimidin-1-yl)-4-fluoro-3-hydroxy-4-methyl-tetrahydrofuran-2-yl]methoxy-phenoxy-phosphoryl]amino]propanoate]
- EC50 [1]: 33 nM
- inhibition of NS3 activity [2]: dose dependent inhibition
- EC50 (GT4a replicon): 70 nM
- EC50 [3]: 37 nM
- EC50 (GT1b replicon): 158 nM
